Laboratory results published in ChEMBL document CHEMBL4507292 (2021).

How the values were obtained:
[1] = test system: Tyrosine-protein kinase ABL1 (Homo sapiens), P00519 [Q252H]; details: Compound concentration 1000.0 nM
[2] = test system: Epidermal growth factor receptor (Homo sapiens), P00533 [UNDEFINED MUTATION]; details: Compound concentration 1000.0 nM
[3] = biological target: Fibroblast growth factor receptor 4 (Homo sapiens) (UniProt P22455); details: Compound concentration 1000.0 nM
[4] = biological target: Epidermal growth factor receptor (Homo sapiens, UniProt P00533); details: Compound concentration 1000.0 nM
[5] = biological target: Receptor tyrosine-protein kinase erbB-3 (Homo sapiens) (UniProt P21860); details: Compound concentration 1000.0 nM
[6] = biological target: Aurora kinase A (Homo sapiens) (UniProt O14965); details: Compound concentration 1000.0 nM
[7] = biological target: Calcium/calmodulin-dependent protein kinase type IV (Homo sapiens) (UniProt Q16566); details: Compound concentration 1000.0 nM
[8] = biological target: Cyclin-dependent kinase-like 3 (Homo sapiens) (UniProt Q8IVW4); details: Compound concentration 1000.0 nM
[9] = biological target: Serine/threonine-protein kinase Nek7 (Homo sapiens) (UniProt Q8TDX7); details: Compound concentration 1000.0 nM
[10] = biological target: Ephrin type-A receptor 2 (Homo sapiens) (UniProt P29317); details: Compound concentration 1000.0 nM
[11] = biological target: Tyrosine-protein kinase Fer (Homo sapiens) (UniProt P16591); details: Compound concentration 1000.0 nM
[12] = biological target: Serine/threonine-protein kinase Nek2 (Homo sapiens) (UniProt P51955); details: Compound concentration 1000.0 nM
[13] = biological target: Homeodomain-interacting protein kinase 2 (Homo sapiens) (UniProt Q9H2X6); details: Compound concentration 1000.0 nM
[14] = biological target: Mitogen-activated protein kinase 8 (Homo sapiens) (UniProt P45983); details: Compound concentration 1000.0 nM
[15] = biological target: Serine/threonine-protein kinase DCLK3 (Homo sapiens) (UniProt Q9C098); details: Compound concentration 1000.0 nM
[16] = biological target: Serine/threonine-protein kinase 35 (Homo sapiens) (UniProt Q8TDR2); details: Compound concentration 1000.0 nM
[17] = biological target: Serine/threonine-protein kinase 16 (Homo sapiens) (UniProt O75716); details: Compound concentration 1000.0 nM
[18] = test system: Tyrosine-protein kinase ABL1 (Homo sapiens), P00519 [F317I]; details: Compound concentration 1000.0 nM
[19] = biological target: 1-phosphatidylinositol 3-phosphate 5-kinase (Homo sapiens) (UniProt Q9Y2I7); details: Compound concentration 1000.0 nM
[20] = test system: Epidermal growth factor receptor (Homo sapiens), P00533 [UNDEFINED MUTATION]; details: Compound concentration 1000.0 nM; remark: listed apart in the source
[21] = biological target: Tyrosine-protein kinase Tec (Homo sapiens) (UniProt P42680); details: Compound concentration 1000.0 nM
[22] = biological target: RAC-beta serine/threonine-protein kinase (Homo sapiens) (UniProt P31751); details: Compound concentration 1000.0 nM
[23] = biological target: Muscarinic acetylcholine receptor M2 (Homo sapiens) (UniProt P08172); details: Compound concentration 10.0 uM
[24] = biological target: Tyrosine-protein kinase receptor UFO (Homo sapiens) (UniProt P30530); details: Compound concentration 1000.0 nM
[25] = biological target: MAP kinase-interacting serine/threonine-protein kinase 1 (Homo sapiens) (UniProt Q9BUB5); details: Compound concentration 1000.0 nM
[26] = biological target: Tyrosine-protein kinase JAK1 (Homo sapiens) (UniProt P23458); details: Compound concentration 1000.0 nM
[27] = test system: Phosphatidylinositol 4,5-bisphosphate 3-kinase catalytic subunit alpha isoform (Homo sapiens), P42336 [C420R]; details: Compound concentration 1000.0 nM
[28] = biological target: Non-receptor tyrosine-protein kinase TYK2 (Homo sapiens) (UniProt P29597); details: Compound concentration 1000.0 nM
[29] = biological target: Mitogen-activated protein kinase kinase kinase 11 (Homo sapiens) (UniProt Q16584); details: Compound concentration 1000.0 nM
[30] = biological target: Beta-3 adrenergic receptor (Homo sapiens, UniProt P13945); assay: GPCRScan assay: inhibition of Beta3; parameters: radioligand conc. used [nm] 0.2 – 0.5, parental cells HEK Flp-In
[31] = biological target: Serine/threonine-protein kinase Sgk2 (Homo sapiens) (UniProt Q9HBY8); details: Compound concentration 1000.0 nM
[32] = biological target: Tyrosine-protein kinase ABL1 (Homo sapiens) (UniProt P00519); details: Compound concentration 1000.0 nM
[33] = biological target: Platelet-derived growth factor receptor alpha (Homo sapiens) (UniProt P16234); details: Compound concentration 1000.0 nM
[34] = biological target: Serine/threonine-protein kinase DCLK1 (Homo sapiens) (UniProt O15075); details: Compound concentration 1000.0 nM
[35] = biological target: Tyrosine-protein kinase Lyn (Homo sapiens) (UniProt P07948); details: Compound concentration 1000.0 nM
[36] = biological target: Delta-type opioid receptor (Homo sapiens) (UniProt P41143); details: Compound concentration 10.0 uM
[37] = biological target: Mitogen-activated protein kinase 12 (Homo sapiens) (UniProt P53778); details: Compound concentration 1000.0 nM
[38] = test system: Tyrosine-protein kinase ABL1 (Homo sapiens), P00519 [F317L]; details: Compound concentration 1000.0 nM
[39] = test system: Phosphatidylinositol 4,5-bisphosphate 3-kinase catalytic subunit alpha isoform (Homo sapiens), P42336 [M1043I]; details: Compound concentration 1000.0 nM
[40] = biological target: Receptor-type tyrosine-protein kinase FLT3 (Homo sapiens) (UniProt P36888); details: Compound concentration 1000.0 nM
[41] = biological target: Casein kinase II subunit alpha (Homo sapiens) (UniProt P68400); details: Compound concentration 1000.0 nM
[42] = biological target: Serine/threonine-protein kinase Nek5 (Homo sapiens) (UniProt Q6P3R8); details: Compound concentration 1000.0 nM
[43] = biological target: ALK tyrosine kinase receptor (Homo sapiens) (UniProt Q9UM73); details: Compound concentration 1000.0 nM
[44] = biological target: Serine/threonine-protein kinase MRCK gamma (Homo sapiens) (UniProt Q6DT37); details: Compound concentration 1000.0 nM
[45] = test system: Receptor-type tyrosine-protein kinase FLT3 (Homo sapiens), P36888 [UNDEFINED MUTATION]; details: Compound concentration 1000.0 nM

Chain of Epidermal growth factor receptor (Homo sapiens), P00533 [UNDEFINED MUTATION] (P00533 whole entry, looked up, change not shown): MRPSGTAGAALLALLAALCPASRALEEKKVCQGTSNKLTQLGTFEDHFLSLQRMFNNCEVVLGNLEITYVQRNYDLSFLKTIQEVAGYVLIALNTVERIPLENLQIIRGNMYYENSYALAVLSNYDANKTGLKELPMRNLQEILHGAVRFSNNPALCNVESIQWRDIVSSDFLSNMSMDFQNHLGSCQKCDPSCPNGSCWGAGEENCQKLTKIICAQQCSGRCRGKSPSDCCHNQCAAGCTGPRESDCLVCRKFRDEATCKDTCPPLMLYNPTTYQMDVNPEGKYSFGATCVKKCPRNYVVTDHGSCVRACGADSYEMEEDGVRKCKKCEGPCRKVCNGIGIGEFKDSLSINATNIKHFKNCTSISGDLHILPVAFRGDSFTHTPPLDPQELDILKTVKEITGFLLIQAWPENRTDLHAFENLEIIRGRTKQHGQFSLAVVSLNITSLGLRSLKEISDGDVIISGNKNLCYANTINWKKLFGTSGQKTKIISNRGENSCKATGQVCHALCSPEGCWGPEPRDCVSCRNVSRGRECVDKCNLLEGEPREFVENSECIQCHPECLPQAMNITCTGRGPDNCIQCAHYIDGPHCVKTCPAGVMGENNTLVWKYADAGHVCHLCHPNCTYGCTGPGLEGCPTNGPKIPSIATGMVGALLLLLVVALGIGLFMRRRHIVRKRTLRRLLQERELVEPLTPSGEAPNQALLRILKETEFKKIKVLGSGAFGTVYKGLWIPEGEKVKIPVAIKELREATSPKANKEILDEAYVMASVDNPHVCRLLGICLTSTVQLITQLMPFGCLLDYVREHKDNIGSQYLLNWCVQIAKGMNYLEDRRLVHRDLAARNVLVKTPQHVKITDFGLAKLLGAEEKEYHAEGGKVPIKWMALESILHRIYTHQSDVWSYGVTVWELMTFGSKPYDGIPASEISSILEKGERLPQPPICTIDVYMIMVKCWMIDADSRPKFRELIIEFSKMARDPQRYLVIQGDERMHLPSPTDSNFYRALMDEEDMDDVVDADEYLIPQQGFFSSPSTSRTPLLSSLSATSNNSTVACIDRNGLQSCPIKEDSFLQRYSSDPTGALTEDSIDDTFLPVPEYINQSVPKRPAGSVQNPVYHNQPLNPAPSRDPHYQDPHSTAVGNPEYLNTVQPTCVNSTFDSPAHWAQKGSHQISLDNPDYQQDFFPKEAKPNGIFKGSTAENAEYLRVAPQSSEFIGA
Chain of Tyrosine-protein kinase Fer (Homo sapiens) (P16591 whole entry, looked up): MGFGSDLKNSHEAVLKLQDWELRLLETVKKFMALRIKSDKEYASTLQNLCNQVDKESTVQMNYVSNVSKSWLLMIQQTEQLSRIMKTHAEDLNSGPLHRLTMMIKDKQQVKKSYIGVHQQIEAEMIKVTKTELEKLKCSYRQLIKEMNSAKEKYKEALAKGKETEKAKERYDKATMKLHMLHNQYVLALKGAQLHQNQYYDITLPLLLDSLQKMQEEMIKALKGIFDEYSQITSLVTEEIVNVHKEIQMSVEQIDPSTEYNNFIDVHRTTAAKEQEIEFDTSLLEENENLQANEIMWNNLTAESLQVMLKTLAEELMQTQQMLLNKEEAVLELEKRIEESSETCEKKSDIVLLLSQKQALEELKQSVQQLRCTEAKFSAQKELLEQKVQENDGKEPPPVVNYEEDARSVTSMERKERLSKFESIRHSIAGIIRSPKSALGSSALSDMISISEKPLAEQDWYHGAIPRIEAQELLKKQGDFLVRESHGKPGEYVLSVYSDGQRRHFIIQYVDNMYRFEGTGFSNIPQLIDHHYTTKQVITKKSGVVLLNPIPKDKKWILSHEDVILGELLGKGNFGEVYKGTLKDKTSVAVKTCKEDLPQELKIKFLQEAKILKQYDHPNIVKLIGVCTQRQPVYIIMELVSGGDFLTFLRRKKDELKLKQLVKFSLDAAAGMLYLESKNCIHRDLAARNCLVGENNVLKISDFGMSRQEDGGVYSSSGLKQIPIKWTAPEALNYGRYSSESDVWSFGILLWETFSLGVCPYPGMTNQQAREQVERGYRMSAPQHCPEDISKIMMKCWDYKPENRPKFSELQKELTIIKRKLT
Chain of Serine/threonine-protein kinase Sgk2 (Homo sapiens) (Q9HBY8 whole entry): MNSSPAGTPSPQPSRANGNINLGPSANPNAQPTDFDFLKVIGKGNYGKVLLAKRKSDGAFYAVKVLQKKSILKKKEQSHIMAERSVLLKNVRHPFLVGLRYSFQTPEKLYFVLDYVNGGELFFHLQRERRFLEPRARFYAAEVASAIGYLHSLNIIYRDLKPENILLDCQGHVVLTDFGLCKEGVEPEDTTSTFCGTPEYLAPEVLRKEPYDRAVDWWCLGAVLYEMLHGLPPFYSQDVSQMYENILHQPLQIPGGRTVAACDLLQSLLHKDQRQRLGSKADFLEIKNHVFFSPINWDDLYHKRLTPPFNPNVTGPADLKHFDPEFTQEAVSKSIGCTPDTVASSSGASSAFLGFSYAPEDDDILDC
Chain of 1-phosphatidylinositol 3-phosphate 5-kinase (Homo sapiens) (Q9Y2I7 whole entry): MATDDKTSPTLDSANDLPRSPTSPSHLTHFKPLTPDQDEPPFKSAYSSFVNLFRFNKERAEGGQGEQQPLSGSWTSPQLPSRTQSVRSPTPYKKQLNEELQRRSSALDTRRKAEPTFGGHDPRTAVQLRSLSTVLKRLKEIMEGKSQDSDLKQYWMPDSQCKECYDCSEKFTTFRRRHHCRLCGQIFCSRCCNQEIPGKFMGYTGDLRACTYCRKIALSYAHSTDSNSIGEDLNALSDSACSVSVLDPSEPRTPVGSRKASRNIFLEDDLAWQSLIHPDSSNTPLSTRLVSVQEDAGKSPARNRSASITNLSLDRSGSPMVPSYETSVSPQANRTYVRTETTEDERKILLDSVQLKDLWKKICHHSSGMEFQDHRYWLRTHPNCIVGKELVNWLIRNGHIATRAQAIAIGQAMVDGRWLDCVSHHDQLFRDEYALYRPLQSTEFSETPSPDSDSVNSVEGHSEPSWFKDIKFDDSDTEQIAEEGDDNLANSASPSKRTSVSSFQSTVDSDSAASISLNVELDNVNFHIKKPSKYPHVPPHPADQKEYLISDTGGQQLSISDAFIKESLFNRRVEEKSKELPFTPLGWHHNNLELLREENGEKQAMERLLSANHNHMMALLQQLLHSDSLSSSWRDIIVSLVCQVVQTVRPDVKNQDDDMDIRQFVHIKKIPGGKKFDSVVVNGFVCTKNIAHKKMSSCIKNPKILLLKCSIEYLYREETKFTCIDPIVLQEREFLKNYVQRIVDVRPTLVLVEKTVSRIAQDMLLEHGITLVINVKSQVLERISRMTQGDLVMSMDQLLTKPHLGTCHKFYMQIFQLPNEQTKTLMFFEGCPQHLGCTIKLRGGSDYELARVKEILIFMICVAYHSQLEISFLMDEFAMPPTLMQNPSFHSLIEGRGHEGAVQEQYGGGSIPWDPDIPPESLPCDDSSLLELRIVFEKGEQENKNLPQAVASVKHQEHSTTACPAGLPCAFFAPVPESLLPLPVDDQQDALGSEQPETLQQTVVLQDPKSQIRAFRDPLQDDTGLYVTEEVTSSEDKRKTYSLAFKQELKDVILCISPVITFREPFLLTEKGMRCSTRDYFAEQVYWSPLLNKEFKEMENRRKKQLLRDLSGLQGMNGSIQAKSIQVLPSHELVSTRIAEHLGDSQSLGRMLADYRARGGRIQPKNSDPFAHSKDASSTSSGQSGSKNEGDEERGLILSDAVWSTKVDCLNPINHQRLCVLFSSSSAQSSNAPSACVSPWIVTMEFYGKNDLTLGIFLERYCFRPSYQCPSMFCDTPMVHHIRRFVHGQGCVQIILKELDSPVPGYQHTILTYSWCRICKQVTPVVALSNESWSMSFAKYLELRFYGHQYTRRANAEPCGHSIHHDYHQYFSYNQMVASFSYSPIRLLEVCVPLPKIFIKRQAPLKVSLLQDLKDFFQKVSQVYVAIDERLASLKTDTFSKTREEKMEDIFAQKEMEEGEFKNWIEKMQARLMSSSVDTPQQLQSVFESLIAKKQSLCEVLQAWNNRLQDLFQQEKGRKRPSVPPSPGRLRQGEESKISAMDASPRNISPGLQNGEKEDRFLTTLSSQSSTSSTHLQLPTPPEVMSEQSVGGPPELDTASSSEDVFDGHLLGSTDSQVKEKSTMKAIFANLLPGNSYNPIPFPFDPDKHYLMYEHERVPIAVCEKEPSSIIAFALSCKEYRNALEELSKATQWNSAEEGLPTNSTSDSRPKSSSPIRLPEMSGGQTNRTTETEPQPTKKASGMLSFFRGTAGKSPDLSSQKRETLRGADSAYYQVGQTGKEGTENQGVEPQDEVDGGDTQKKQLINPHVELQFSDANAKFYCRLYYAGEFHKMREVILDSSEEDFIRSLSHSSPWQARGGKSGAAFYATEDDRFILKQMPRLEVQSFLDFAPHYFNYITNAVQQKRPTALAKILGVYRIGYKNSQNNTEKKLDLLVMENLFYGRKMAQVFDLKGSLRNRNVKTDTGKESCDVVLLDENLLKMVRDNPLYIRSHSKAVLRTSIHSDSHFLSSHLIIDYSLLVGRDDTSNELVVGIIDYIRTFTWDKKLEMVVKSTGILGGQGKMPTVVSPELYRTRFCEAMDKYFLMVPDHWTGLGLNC
Chain of MAP kinase-interacting serine/threonine-protein kinase 1 (Homo sapiens) (Q9BUB5 whole entry, looked up): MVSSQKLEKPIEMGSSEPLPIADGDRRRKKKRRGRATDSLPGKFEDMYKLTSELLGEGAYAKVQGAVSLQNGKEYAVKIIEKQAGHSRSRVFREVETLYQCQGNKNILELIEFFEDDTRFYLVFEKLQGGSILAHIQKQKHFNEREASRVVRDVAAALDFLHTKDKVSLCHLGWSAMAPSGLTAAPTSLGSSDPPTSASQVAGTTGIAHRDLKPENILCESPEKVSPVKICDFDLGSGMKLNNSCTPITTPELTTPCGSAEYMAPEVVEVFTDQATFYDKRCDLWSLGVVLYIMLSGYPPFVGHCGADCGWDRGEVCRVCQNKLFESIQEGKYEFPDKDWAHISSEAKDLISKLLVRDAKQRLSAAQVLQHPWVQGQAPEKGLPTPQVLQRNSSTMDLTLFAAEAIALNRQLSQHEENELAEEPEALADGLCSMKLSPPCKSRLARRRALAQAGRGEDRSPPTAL

Which residual activity [1] does the source give for `Cc1c(C(=O)O)cc(-c2ccc(C3CCNCC3)cc2)c2ccc(-c3ccc(C(F)(F)F)cc3)cc12` [PPTN-NC] here?
The residual activity was 85%.

What about the residual activity [2] of the same compound?
The residual activity was 100%.

And the residual activity [3]?
The residual activity was 100%.

What about the residual activity [4] of the same compound?
The residual activity was 100%.

And the residual activity [5]?
Its residual activity is 86%.

What about the residual activity [6] of the same compound?
The residual activity was 100%.

What about the residual activity [7] of the same compound?
The residual activity was 100%.

And the residual activity [8]?
The residual activity was 100%.

And the residual activity [9]?
Its residual activity is 100%.

What about the residual activity [10] of the same compound?
The residual activity was 100%.

What about the residual activity [11] of the same compound?
Its residual activity is 100%.

What about the residual activity [12] of the same compound?
The residual activity was 100%.

What about the residual activity [13] of the same compound?
Its residual activity is 100%.

And the residual activity [14]?
Its residual activity is 100%.

What about the residual activity [15] of the same compound?
Its residual activity is 100%.

And the residual activity [16]?
Its residual activity is 100%.

And the residual activity [17]?
Its residual activity is 100%.

What about the residual activity [18] of the same compound?
Its residual activity is 100%.

What about the residual activity [19] of the same compound?
Its residual activity is 100%.

And the residual activity [20]?
Its residual activity is 100%.

And the residual activity [21]?
Its residual activity is 100%.

What about the residual activity [22] of the same compound?
Its residual activity is 100%.

And the inhibition [23]?
The inhibition was 19.3%.

And the residual activity [24]?
The residual activity was 100%.

And the residual activity [25]?
Its residual activity is 100%.

What about the residual activity [26] of the same compound?
Its residual activity is 79%.

What about the residual activity [27] of the same compound?
The residual activity was 100%.

What about the residual activity [28] of the same compound?
The residual activity was 100%.

And the residual activity [29]?
Its residual activity is 100%.

What about the Ki [30] of the same compound?
The Ki was 3.26 µM.

What about the residual activity [31] of the same compound?
The residual activity was 100%.

And the residual activity [32]?
The residual activity was 82%.

And the residual activity [33]?
Its residual activity is 100%.

What about the residual activity [34] of the same compound?
The residual activity was 81%.

And the residual activity [35]?
The residual activity was 90%.

What about the inhibition [36] of the same compound?
Its inhibition is 32%.

And the residual activity [37]?
The residual activity was 85%.

And the residual activity [38]?
The residual activity was 100%.

What about the residual activity [39] of the same compound?
The residual activity was 100%.

And the residual activity [40]?
The residual activity was 100%.

And the residual activity [41]?
Its residual activity is 100%.

What about the residual activity [42] of the same compound?
The residual activity was 100%.

And the residual activity [43]?
Its residual activity is 100%.

And the residual activity [44]?
Its residual activity is 100%.

What about the residual activity [45] of the same compound?
The residual activity was 100%.

With `O=C(O)c1cc(-c2ccc(C3CCNCC3)cc2)c2ccc(-c3ccc(C(F)(F)F)cc3)cc2c1` [PPTN] as the compound, how does the residual activity [1] read?
The residual activity was 100%.

What about the residual activity [2] of the same compound?
The residual activity was 100%.

What about the residual activity [3] of the same compound?
The residual activity was 100%.

What about the residual activity [4] of the same compound?
Its residual activity is 100%.

What about the residual activity [5] of the same compound?
Its residual activity is 85%.

And the residual activity [6]?
The residual activity was 100%.

And the residual activity [7]?
Its residual activity is 100%.

And the residual activity [8]?
Its residual activity is 94%.

And the residual activity [9]?
The residual activity was 100%.

And the residual activity [10]?
The residual activity was 100%.

And the residual activity [11]?
The residual activity was 100%.

What about the residual activity [12] of the same compound?
Its residual activity is 100%.

And the residual activity [13]?
Its residual activity is 100%.

And the residual activity [14]?
The residual activity was 100%.

And the residual activity [15]?
Its residual activity is 100%.

And the residual activity [16]?
The residual activity was 100%.

What about the residual activity [17] of the same compound?
Its residual activity is 100%.

And the residual activity [18]?
Its residual activity is 100%.

What about the residual activity [19] of the same compound?
The residual activity was 100%.

And the residual activity [20]?
The residual activity was 100%.

What about the residual activity [21] of the same compound?
The residual activity was 100%.

And the residual activity [22]?
The residual activity was 95%.

What about the inhibition [23] of the same compound?
The inhibition was 10.9%.

And the residual activity [24]?
Its residual activity is 100%.

What about the residual activity [25] of the same compound?
The residual activity was 100%.

And the residual activity [26]?
The residual activity was 87%.

What about the residual activity [27] of the same compound?
The residual activity was 95%.

And the residual activity [28]?
The residual activity was 100%.

And the residual activity [29]?
The residual activity was 100%.

What about the Ki [30] of the same compound?
The Ki was 2.92 µM.

What about the residual activity [31] of the same compound?
Its residual activity is 100%.

What about the residual activity [32] of the same compound?
The residual activity was 75%.

And the residual activity [33]?
Its residual activity is 100%.

What about the residual activity [34] of the same compound?
The residual activity was 84%.

What about the residual activity [35] of the same compound?
The residual activity was 100%.

What about the inhibition [36] of the same compound?
Its inhibition is 36.4%.

And the residual activity [37]?
Its residual activity is 99%.

What about the residual activity [38] of the same compound?
The residual activity was 100%.

What about the residual activity [39] of the same compound?
The residual activity was 100%.

What about the residual activity [40] of the same compound?
The residual activity was 100%.

What about the residual activity [41] of the same compound?
Its residual activity is 100%.

What about the residual activity [42] of the same compound?
The residual activity was 100%.

And the residual activity [43]?
Its residual activity is 100%.

And the residual activity [44]?
The residual activity was 100%.

What about the residual activity [45] of the same compound?
Its residual activity is 100%.
